Reference: article PMC10249031 (ACS Omega, 2023)
Where two headings read alike, the source gives them in different places.

Legend:
Vero cells = experiment: MTT cytotoxicity assay, Vero normal cell line; assay type: cell-based, monkey; conditions: Primates, 72 h, read-out: IC50 Vero
A431 cells [1] = conditions: 10 μM, 72 h, MTT
A549 cells = experiment: MTT cytotoxicity assay, A549; assay type: cell-based, human; conditions: for Cell viability of A549: 10 μM
EGFR-TK = EGFR-TK (Homo sapiens, UniProt P00533); experiment: ADP-Glo Kinase Assay, EGFR tyrosine kinase inhibition; assay type: biochemical; conditions: for EGFR-TK inhibitory activity (screening): at 1 μM, compared to erlotinib, n = 2
Chain of EGFR-TK (P00533 25-1210): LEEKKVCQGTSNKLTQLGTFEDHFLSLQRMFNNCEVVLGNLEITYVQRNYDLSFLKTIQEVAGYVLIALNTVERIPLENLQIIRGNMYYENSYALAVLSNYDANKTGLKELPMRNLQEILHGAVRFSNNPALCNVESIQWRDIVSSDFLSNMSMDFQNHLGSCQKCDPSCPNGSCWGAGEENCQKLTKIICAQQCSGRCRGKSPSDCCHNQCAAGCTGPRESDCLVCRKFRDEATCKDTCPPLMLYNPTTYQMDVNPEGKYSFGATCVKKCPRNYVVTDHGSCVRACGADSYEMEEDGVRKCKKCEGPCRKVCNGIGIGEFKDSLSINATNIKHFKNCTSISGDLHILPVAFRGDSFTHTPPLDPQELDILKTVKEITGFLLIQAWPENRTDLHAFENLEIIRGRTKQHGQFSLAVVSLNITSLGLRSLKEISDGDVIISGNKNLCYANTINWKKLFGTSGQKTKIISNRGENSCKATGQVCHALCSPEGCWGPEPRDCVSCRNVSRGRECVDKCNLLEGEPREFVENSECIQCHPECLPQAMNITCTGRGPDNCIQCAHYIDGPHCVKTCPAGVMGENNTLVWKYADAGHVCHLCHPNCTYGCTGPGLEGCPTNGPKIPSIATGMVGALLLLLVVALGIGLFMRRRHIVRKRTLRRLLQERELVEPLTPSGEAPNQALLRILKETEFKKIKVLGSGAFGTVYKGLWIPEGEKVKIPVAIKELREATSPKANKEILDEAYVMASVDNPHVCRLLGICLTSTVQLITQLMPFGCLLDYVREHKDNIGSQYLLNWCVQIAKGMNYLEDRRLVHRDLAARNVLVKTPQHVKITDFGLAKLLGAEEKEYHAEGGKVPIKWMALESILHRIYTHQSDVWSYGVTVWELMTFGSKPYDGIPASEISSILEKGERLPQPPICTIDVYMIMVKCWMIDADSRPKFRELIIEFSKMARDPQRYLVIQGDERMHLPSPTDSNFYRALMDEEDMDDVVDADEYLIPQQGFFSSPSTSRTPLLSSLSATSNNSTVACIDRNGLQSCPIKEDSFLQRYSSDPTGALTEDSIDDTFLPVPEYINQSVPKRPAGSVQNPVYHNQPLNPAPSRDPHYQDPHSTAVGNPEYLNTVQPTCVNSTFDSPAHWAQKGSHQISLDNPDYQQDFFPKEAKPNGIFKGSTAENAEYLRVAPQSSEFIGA

A431 cells [2] = experiment: cells; conditions: Homo sapiens, A-431, 72 h, read-out: IC50 A431
[3] = Homo sapiens, A549, 72 h, read-out: IC50 A549

SMILES | IC50 (Vero cells) [µM] | Cell viability of A431 (A431 cells [1]) | Cell viability of A549 (A549 cells; 72 h, MTT) | IC50 (A549 cells; [3]) [µM] | EGFR-TK inhibitory activity (screening) (EGFR-TK) | IC50 (A431 cells [2]) [µM] | IC50 (EGFR-TK) [µM] | IC50 (A549 cells; Homo sapiens, A549, 72 h, read-out: IC50 A549, MTT, 72 h) [µM] | IC50 (A549 cells; read-out: IC50 A549, MTT, 72 h) [µM]
COc1ccc(S(=O)(=O)c2c3c4ccccc4n(C)c(-c4ccccc4)c-3c3ccccc23)cc1 [SIQ3] | > 100 | more susceptible | more vulnerable | 33.5 ± 0.47 | higher EGFR-TK inhibitory activity than erlotinib | 17.7 ± 0.35 | – | – | –
Cn1c(-c2ccccc2)c2c3ccccc3c(S(=O)(=O)c3ccc(Cl)cc3)c-2c2ccccc21 [SIQ5] | 8.06 ± 0.15 | more susceptible | more vulnerable | 16.8 ± 0.41 | higher EGFR-TK inhibitory activity than erlotinib | 9.93 ± 0.45 | – | – | –
Cc1ccc(S(=O)(=O)c2c3c4ccccc4n(C)c(-c4ccccc4)c-3c3ccccc23)c(C)c1 [SIQ8] | 21.7 ± 0.5 | – | more vulnerable | 27.2 ± 0.71 | higher EGFR-TK inhibitory activity than erlotinib | 14.1 ± 0.73 | – | – | –
Cc1ccc(-c2c3c4ccccc4c(S(=O)(=O)c4ccc(C)cc4)c-3c3ccccc3n2C)cc1 [SIQ10] | – | – | – | – | higher EGFR-TK inhibitory activity than erlotinib | – | 0.0214 ± 0.00574 | – | –
COc1ccc(-c2c3c4ccccc4c(S(=O)(=O)c4ccc(C)cc4)c-3c3ccccc3n2C)cc1 [SIQ11] | – | – | – | – | higher EGFR-TK inhibitory activity than erlotinib | – | 0.0232 ± 0.00876 | – | –
Cc1ccc(S(=O)(=O)c2c3c4ccccc4n(C)c(-c4ccc(Cl)cc4)c-3c3ccccc23)cc1 [SIQ12] | 7.25 ± 0.12 | more susceptible | more vulnerable | 23.2 ± 0.42 | higher EGFR-TK inhibitory activity than erlotinib | 13.1 ± 0.5 | – | – | –
Cc1ccc(S(=O)(=O)c2c3c4ccccc4n(C)c(-c4ccc(C)cc4C)c-3c3ccccc23)cc1 [SIQ17] | > 100 | – | more vulnerable | 33 ± 0.59 | higher EGFR-TK inhibitory activity than erlotinib | 19.2 ± 0.97 | – | – | –
Cc1ccc(S(=O)(=O)c2c3c4cc(C)ccc4n(C)c(-c4ccccc4)c-3c3ccccc23)cc1 [SIQ19] | 5.88 ± 0.33 | more susceptible | – | 29.3 ± 0.44 | higher EGFR-TK inhibitory activity than erlotinib | 11.9 ± 0.41 | – | – | –
C#Cc1cccc(Nc2ncnc3cc(OCCOC)c(OCCOC)cc23)c1 [erlotinib, reference compound] | 35 ± 1.35 | – | – | – | – | – | – | 33.3 | 33.3 ± 1.88
